One compound from article PMC11864979, “First-in-class ultralong-target-residence-time p38α inhibitors as a mitosis-targeted therapy for colorectal cancer” (Nature Cancer, 2025) can be followed below.

What all share (assay): selectivity profiling in a panel of 340 wild-type kinases (Reaction Biology Europe)
Holding throughout (type): binding

Test [1] addresses T1, 340 wild-type kinases (Homo sapiens, UniProt O15146).
T1 construct: purchased Reaction Biology Europe
T1 sequence (O15146 24-869): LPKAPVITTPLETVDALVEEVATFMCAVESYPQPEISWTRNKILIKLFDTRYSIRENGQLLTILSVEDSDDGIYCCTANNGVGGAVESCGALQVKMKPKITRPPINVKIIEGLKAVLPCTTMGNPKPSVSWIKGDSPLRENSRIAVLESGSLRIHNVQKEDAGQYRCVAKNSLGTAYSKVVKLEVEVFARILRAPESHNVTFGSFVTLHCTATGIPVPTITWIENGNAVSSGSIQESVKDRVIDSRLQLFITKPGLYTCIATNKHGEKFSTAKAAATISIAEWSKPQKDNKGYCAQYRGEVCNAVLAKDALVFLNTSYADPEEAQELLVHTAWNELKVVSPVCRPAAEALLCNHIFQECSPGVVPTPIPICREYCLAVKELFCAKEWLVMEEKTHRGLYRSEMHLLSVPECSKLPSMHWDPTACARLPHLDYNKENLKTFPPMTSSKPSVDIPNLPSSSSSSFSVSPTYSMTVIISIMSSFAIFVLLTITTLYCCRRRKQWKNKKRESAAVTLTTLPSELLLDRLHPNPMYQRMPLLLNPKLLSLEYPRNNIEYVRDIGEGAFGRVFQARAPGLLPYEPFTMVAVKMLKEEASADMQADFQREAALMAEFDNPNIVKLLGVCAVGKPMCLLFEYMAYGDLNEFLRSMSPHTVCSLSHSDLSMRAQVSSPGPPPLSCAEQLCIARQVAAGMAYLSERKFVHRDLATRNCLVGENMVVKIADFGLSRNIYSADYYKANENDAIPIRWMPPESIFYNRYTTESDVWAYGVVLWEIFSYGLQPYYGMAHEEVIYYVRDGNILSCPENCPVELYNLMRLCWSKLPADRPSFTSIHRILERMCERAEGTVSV

In test [2] the target is T2, 340 wild-type kinases (Homo sapiens, UniProt P27361).
T2 construct: purchased Reaction Biology Europe

The target in test [3] is T3, 340 wild-type kinases (Homo sapiens, UniProt Q8IWQ3).
T3 construct: purchased Reaction Biology Europe
T3 sequence (Q8IWQ3 1-736): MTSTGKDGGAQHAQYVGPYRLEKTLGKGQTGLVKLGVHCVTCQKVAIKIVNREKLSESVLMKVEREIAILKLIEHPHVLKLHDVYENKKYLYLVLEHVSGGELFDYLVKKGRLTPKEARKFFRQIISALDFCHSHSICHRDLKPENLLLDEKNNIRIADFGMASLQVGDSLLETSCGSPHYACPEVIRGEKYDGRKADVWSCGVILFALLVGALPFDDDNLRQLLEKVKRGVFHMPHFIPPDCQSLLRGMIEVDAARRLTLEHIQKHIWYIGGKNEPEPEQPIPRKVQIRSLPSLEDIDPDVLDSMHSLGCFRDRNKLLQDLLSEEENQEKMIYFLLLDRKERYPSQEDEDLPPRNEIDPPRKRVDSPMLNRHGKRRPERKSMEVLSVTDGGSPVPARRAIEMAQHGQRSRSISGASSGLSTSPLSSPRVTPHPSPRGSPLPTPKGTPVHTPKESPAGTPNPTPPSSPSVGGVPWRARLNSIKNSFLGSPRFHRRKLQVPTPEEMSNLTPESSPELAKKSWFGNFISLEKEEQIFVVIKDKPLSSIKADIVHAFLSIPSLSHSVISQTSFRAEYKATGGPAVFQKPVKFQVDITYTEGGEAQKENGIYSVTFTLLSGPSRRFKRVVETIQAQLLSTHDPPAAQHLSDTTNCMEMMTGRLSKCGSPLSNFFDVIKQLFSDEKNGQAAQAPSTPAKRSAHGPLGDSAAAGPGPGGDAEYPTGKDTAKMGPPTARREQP

The target in test [4] is T4, 340 wild-type kinases (Homo sapiens, UniProt Q96GX5).
T4 construct: purchased Reaction Biology Europe
T4 sequence (Q96GX5 1-879): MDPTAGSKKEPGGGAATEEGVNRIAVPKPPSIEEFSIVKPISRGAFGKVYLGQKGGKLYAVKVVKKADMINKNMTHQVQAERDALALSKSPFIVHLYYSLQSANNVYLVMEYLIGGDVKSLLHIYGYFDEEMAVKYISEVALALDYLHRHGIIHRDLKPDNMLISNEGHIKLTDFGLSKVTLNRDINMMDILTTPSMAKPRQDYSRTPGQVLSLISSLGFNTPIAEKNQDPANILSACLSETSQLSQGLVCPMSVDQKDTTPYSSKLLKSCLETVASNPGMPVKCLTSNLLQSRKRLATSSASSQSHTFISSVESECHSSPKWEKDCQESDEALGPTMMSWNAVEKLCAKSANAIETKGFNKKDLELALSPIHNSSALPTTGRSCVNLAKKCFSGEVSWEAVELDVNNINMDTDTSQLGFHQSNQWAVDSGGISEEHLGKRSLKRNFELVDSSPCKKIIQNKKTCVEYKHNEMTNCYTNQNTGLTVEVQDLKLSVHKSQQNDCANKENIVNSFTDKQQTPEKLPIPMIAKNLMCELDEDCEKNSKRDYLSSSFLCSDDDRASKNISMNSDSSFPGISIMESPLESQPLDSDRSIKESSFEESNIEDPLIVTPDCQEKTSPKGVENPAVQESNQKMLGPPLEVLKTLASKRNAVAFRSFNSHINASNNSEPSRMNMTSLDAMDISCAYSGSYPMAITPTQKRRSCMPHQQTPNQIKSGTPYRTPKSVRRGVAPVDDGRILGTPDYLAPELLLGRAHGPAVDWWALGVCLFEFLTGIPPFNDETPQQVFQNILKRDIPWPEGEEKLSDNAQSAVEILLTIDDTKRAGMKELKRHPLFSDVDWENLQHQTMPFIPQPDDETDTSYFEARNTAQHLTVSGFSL

In test [5] the target is T5, 340 wild-type kinases (Homo sapiens, UniProt Q9NYL2).
T5 construct: purchased Reaction Biology Europe

Read-outs that look alike come from different tables or passages of the source.

T5 sequence (Q9NYL2 whole entry): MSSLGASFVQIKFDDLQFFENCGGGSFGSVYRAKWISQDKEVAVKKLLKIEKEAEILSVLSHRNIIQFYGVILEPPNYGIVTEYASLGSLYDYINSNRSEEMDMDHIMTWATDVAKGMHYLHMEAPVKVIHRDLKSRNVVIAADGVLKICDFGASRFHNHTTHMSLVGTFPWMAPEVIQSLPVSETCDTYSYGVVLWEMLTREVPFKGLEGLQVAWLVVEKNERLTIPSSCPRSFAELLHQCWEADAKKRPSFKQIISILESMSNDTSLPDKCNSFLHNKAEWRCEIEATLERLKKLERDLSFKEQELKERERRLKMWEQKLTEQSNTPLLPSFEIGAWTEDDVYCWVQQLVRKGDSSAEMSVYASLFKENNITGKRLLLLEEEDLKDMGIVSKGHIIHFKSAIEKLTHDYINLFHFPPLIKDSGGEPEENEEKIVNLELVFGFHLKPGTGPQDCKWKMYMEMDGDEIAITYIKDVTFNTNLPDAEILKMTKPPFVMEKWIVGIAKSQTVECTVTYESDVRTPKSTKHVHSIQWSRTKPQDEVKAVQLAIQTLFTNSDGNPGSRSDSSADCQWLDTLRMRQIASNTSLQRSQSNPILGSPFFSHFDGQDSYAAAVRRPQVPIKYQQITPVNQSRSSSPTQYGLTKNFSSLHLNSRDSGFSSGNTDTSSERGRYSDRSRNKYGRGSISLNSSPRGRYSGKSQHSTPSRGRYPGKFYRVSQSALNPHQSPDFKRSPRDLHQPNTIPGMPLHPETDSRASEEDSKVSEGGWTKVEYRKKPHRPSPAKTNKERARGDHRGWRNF
T2 sequence (P27361 whole entry): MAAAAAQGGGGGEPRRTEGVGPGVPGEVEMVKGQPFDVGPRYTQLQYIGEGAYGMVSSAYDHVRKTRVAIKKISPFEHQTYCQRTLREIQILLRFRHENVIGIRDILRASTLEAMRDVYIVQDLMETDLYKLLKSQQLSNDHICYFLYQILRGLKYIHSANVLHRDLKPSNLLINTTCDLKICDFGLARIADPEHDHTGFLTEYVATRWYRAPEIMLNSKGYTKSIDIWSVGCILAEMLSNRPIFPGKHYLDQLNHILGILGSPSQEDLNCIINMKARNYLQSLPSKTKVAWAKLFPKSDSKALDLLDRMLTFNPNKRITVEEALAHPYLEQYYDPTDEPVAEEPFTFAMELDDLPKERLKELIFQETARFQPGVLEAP

On to `CNC(=O)c1ccc2c(c1)C(=O)c1ccc(Nc3ccc(F)c(NC(=O)C4CC4)c3)cc1CC2` [Compound 2015], for which the remaining activity at 0.2 µM at 340 wild-type kinases [1] (0.2 µM 2015, read-out: MUSK residual activity) was determined as 87.5%; on 340 wild-type kinases [1] (MUSK, 0.2 µM, read-out: residual activity) it was 87.5%; at 340 wild-type kinases [2] (ERK1, 0.2 µM, read-out: residual activity), 108%; on 340 wild-type kinases [3] (0.2 µM 2015, read-out: BRSK2 residual activity) it was 103%; on 340 wild-type kinases [3] (BRSK2, 0.2 µM, read-out: residual activity) it was 103%; at 340 wild-type kinases [4] (0.2 µM 2015, read-out: MASTL residual activity), 101%. In addition, the remaining activity at 0.2 µM at 340 wild-type kinases [4] (MASTL, 0.2 µM, read-out: residual activity) came out at 101%; at 340 wild-type kinases [5] (0.2 µM 2015, read-out: ZAK residual activity) it was 110%; at 340 wild-type kinases [5] (ZAK, 0.2 µM, read-out: residual activity), 110%. Besides, the remaining activity at 1 µM was 87.3% on 340 wild-type kinases [1] (1 µM 2015, read-out: MUSK residual activity); 87.3% on 340 wild-type kinases [1] (MUSK, 1 µM, read-out: residual activity); 104% on 340 wild-type kinases [2] (1 µM 2015, read-out: ERK1 residual activity); 104% on 340 wild-type kinases [2] (ERK1, 1 µM, read-out: residual activity); 101% on 340 wild-type kinases [3] (1 µM 2015, read-out: BRSK2 residual activity); 101% on 340 wild-type kinases [3] (BRSK2, 1 µM, read-out: residual activity). Moreover, the remaining activity at 1 µM on 340 wild-type kinases [4] (1 µM 2015, read-out: MASTL residual activity) came to 93.3%; at 340 wild-type kinases [4] (MASTL, 1 µM, read-out: residual activity), 93.3%; at 340 wild-type kinases [5] (1 µM 2015, read-out: ZAK residual activity), 104%; on 340 wild-type kinases [5] (ZAK, 1 µM, read-out: residual activity), 104%.
